Assay [1] addresses Phaeobacter sp. MED193 UgpB (MED193_07903) (Phaeobacter sp. MED193 (Roseobacter sp. MED193), UniProt Z9VP90JAR2). Nature of the assay: MST binding affinity assay, purified recombinant UgpB. To be noted: 22 °C, 20 mM HEPES pH 7.4, 100 mM NaCl, recombinant UgpB of Phaeobacter sp. MED193. The protocol:
(§1) The binding affinity of the purified proteins to G1P and other structurally related chemicals was measured using a Monolith NT.115 (NanoTemper Technologies, Munich, Germany). Proteins (160 nM) were labeled in assay buffer (PBS containing 0.05% (v/v) Tween-20) using the Protein Labelling Kit RED-Tris-NTA (NanoTemper Technologies). For binding assays, the buffer was replaced by 20 mM HEPES pH 7.4, 100 mM NaCl, 0.05% (v/v) Tween-20. Each chemical was prepared by serial dilution in the same assay buffer and mixed with the same volume of labeled protein (at a final concentration of 80 nM). The mixture was then loaded onto Monolith™ NT.115 Series capillaries (NanoTemper Technologies, Germany) and thermophoresis was measured at 22 °C using 60% excitation power and medium MST power. Data were analyzed using MO. Affinity Analysis v2.3 software (NanoTemper Technologies).
(§2) The full-length codon optimized GpxB (MED193_19449) of Phaeobacter sp. MED193 (WP_009811375.1), and four GpxB homologs (Marinobacter sp. DSM11874, MBB6025290.1; S. pseudonitzschiae DSM26824, WP_037914517.1; Sulfitobacter sp. EE-36, WP_005852758.1; S. geojensis sp. EhN01, WP_064222091.1) were chemically synthesized by Beijing Tsingke Biotech Co., Ltd. (China), and subcloned into pET-22b (Novagen, America) with a C-terminal His-tag. An N-terminal signal peptide truncated [residues 1−22 predicted by SignalP 5.0 Server ([36])] […]

For assay [2], the target named is GpxB from Sulfitobacter pseudonitzschiae DSM26824. As to the kind of experiment: MST binding affinity assay, purified GpxB from Sulfitobacter pseudonitzschiae DSM26824. To be noted: GpxB of Sulfitobacter pseudonitzschiae DSM26824. The protocol:
as §1, §2

The target in assay [3] is GpxB from Sulfitobacter sp. EE-36. As to the kind of experiment: MST binding affinity assay, purified GpxB from Sulfitobacter sp. EE-36. The note with it: GpxB of Sulfitobacter sp. EE-36. The procedure: as §1, §2
Assay [4] deals with Phaeobacter sp. MED193 GpxB (MED193_19449) (Roseobacter sp. MED193, UniProt A3X5C8). Nature of the assay: Microscale thermophoresis (MST) binding affinity assay, purified recombinant GpxB. To be noted: 22 °C, 20 mM HEPES pH 7.4, 100 mM NaCl, recombinant GpxB of Phaeobacter sp. MED193. The procedure:
as §1, §2
(MST reads how a fluorescent partner responds to local heating, with and without ligand.)

Assay [5] addresses GpxB from Sulfitobacter geojensis EhN01. As to the kind of experiment: MST binding affinity assay, purified GpxB from Sulfitobacter geojensis EhN01. To be noted: GpxB of Sulfitobacter geojensis EhN01. The procedure: as §1, §2
For the next assay, the system named is Phaeobacter sp. MED193. Nature of the assay: Growth on substrate as the sole C source, wild type. The note with it: defined artificial seawater medium, 5 mM substrate. It is filed as cell-based. The protocol:
(§3) Phaeobacter sp. MED193 and its mutant strains were routinely maintained on 1.5% (w/v) Difco marine broth 2216 agar with antibiotics as appropriate. To test the growth of Phaeobacter sp. MED193 on G1P/G3P, cells were first cultivated in 5 mL marine broth medium overnight at 30 °C with shaking at 150 rpm. A 1% (v/v) inoculum was then transferred to defined artificial seawater medium supplemented with 50 µM phosphate ([6]). After 24 h growth, 12.5 mL cultures were collected by centrifugation and inoculated into 100 mL artificial seawater medium. Subsequently, either G1P or G3P (purchased from Sigma-Aldrich, St. Louis, USA) was added to a final concentration of 5 mM as the sole C source. Cells (40 mL) were harvested after 48 h and used for proteomics.

In assay [6] the test system is Phaeobacter sp. MED193 ∆ugpB∆gpxB double mutant. As to the kind of experiment: Growth on substrate as the sole carbon source, ∆ugpB∆gpxB double mutant. Format: cell-based. The note with it: 5 mM substrate. The procedure:
as §3
The gpxBugpB double mutant was generated using a conjugation protocol as described previously ([35]). First, two homologous regions of an upstream and a downstream fragment flanking the gpxB gene were cloned into suicide plasmid pK18mobsacB, together with a spectinomycin (Spec) resistance cassette which was inserted in between the upstream and downstream fragments. The resulting plasmid was then mobilized into Phaeobacter sp. MED193 using E. coli S17.1 lambda pir and transconjugants selected on marine broth MB agar containing Spec (200 µg mL^−1). […] The same protocol was repeated to generate the gpxBugpB double mutant in the gpxB single mutant background, except that a Gentamycin (Gm) resistant cassette was inserted in between the upstream and downstream fragments of ugpB into pK18mobsacB. All primers, plasmids, and bacterial strains used are listed in SI Appendix, Table S6.

The subject of assay [7] is GpxB^DSM11874 alanine mutants (Tyr138, His199, Thr247, Arg223). As to the kind of experiment: MST binding affinity assay of site-directed alanine mutants of GpxB^DSM11874. On the set-up: species or system Marinobacter sp. DSM11874. To be noted: alanine mutants of Tyr138, His199, Thr247, Arg223 versus wild-type GpxB^DSM11874. The procedure: as §1, §2
Assay [8] has as its target GpxB^DSM11874 (GpxB homolog from Marinobacter sp. DSM11874) (Marinobacter sp. DSM 11874, UniProt Z9YUV0DEE1). As to the kind of experiment: MST binding affinity assay, purified GpxB^DSM11874. The note with it: 22 °C, GpxB^DSM11874 of Marinobacter sp. DSM11874. The procedure:
as §1, §2

Chain of Phaeobacter sp. MED193 GpxB (MED193_19449) (A3X5C8 1-326 limits assumed): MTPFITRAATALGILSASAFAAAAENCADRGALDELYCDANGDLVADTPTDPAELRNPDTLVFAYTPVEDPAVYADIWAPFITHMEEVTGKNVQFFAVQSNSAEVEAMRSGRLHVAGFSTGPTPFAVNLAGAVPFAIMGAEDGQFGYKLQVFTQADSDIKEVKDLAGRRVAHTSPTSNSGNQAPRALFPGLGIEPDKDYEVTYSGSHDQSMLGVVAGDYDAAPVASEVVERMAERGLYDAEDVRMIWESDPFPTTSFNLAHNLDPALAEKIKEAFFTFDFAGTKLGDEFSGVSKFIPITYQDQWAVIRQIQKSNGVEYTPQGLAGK
Chain of Phaeobacter sp. MED193 UgpB (MED193_07903) (Z9VP90JAR2 43-453 limits assumed): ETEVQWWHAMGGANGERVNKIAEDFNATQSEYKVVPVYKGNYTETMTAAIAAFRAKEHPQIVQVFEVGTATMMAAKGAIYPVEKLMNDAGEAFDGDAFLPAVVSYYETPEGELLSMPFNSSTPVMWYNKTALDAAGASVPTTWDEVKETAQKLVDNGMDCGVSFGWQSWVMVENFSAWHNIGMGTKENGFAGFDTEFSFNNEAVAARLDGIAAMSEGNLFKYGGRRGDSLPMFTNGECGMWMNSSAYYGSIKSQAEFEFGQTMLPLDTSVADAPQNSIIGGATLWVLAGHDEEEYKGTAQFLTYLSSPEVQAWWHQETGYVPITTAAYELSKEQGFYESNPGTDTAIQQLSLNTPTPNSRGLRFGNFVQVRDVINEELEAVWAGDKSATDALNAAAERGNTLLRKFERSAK
Chain of GpxB^DSM11874 (GpxB homolog from Marinobacter sp. DSM11874) (Z9YUV0DEE1 21-315 limits assumed): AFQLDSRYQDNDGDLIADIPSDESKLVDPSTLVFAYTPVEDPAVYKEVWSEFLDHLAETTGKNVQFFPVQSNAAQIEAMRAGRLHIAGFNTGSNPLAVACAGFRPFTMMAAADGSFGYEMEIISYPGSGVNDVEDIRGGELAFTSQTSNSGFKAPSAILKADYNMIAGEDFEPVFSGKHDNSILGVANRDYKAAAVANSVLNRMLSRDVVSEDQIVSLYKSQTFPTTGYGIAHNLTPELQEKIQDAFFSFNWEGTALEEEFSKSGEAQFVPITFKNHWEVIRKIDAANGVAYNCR

Take `O=P(O)(O)OC[C@@H](O)CO` [G1P, sn-glycerol-1-phosphate]: the Kd (commonly the constant that tells how readily two partners part at equilibrium) in [1] was determined as 2360 ± 350 nM; in assay [4] it was 2480 ± 140 nM; in assay [8], 1720 ± 280 nM. Moreover, the binding affinity result in [2], in assay [3] and in assay [5] was “low-µM” throughout. Also, the “growth on the substance as the sole C source” value (shortened to “growth … as the sole C source”) with Phaeobacter sp. MED193 was “grows”. For the same molecule, the “growth on the substance as the sole carbon source” value (“growth … as the sole carbon source” for short) in assay [6] is listed as “unable to grow”. Besides, the “reduction in binding affinity of alanine mutants” value in assay [7] was 10- to 100 fold.
As to `O=P(O)(O)OC[C@H](O)CO` [G3P, sn-glycerol-3-phosphate], the Kd in assay [1] is 800 ± 260 nM; in assay [4], 1020 ± 140 nM; in assay [8] it was 1060 ± 150 nM. The binding affinity result in assay [2], in [3] and in assay [5] was “low-µM” each time. Moreover, in the assay on Phaeobacter sp. MED193, the “growth … as the sole C source” value is given as “grows”. Moreover, the “growth … as the sole carbon source” value in assay [6] is “unable to grow”.
For the molecule `OCC(O)CO` [glycerol], the “growth … as the sole C source” value with Phaeobacter sp. MED193 was “grows”. For the same molecule, in assay [6], the “growth … as the sole carbon source” value is “unaffected”.
